Biological target: T1, human granzyme B (Homo sapiens, UniProt P10144)
T1 construct: the first amino acid of mature granzyme B; hexa-histidine tag (N, cleaved yes); Factor Xa recognition site Ile-Glu-Gly-Arg (N, cleaved yes); honeybee melittin secretion signal (N, cleaved yes); made in house; host or cells: Sf9 insect cells (baculovirus, Bac-to-Bac)
Test: Fluorogenic assay for granzyme B (Ac-IEPD-AMC substrate)
Type: biochemical
Conditions: recombinant granzyme B, substrate Ac-IEPD-AMC 10 μM, pH 7.5, 25° C.; read-out: Gzm B Ki
Source text: Plasmids pMelBac and the TA Cloning Kit (pCR2.1) were purchased from Invitrogen (Carlsbad, Calif.). The Bac-to-Bac Baculovirus Expression System and all cell culture supplies were from Life Technologies (Gaithersburg, Md.). The human granzyme B protease has been identified and is known in the art. See, for example, Poe, et al., J. Biol. Chem. 266, 98-103. A vector was generated for secreted protein expression in the Bac-to-Bac system. The honeybee melittin secretion signal was amplified from pMelBac by PCR with primers 5′-GTGT AGATCTATGAAATTCTTAGTCAACG-3′ and 5′-TTCAGCAGAGTCGACTCCAAG-3′. The amplified product contained a BglII site upstream of the melittin secretion signal and spanned the multiple cloning site of the vector. The fragment was digested with BglII and EcoRI and subcloned into BamHI and EcoRI digested pFastBac. The resulting vector was designated pSecBac. Activatable tagged human granzyme B was cloned into pSecBac in two sequential steps. Firstly, mature granzyme B was amplified by PCR with primers 5′-GGATCC ATC GAA GGT CGT ATC ATC GGAGGACATGAGGCC-3′ and 5′-AAGCTTTTAGTAGCGCTTCATGGTCTTCTTTATCC-3′ and cloned into pCR2.1. In the sense primer, the bold type sequence coding for the Factor Xa recognition site, Ile-Glu-Gly-Arg, was inserted upstream of isoleucine 21 (referred to as ILE 16 in this paper using the numbering scheme for this family of serine proteases is traditionally based on the zymogen, chymotrypsinogen), the first amino acid of mature granzyme B. Secondly, hexa-histidine tagged, activatable granzyme B was amplified from the granzyme B/pCR2.1 clone by PCR using primers 5′-GGAAGATCTCATCATCATCATCATCATGGATCCATCGAAGGTCGTATC-3′ and 5′-CCT GAA TTC TTA GTA GCG TIT CAT GGT CTT CTT TAT CC-3′. The amplified product contained a Bali site upstream of the hex-histidine tag and contained the Factor Xa recognition sequence. This fragment was digested with Bali and ECOR and subcloned into BamHI and EcoRI digested pSecBac. The completed vector generated a recombinant baculovirus in Gibco BRL's Bac-to-Bac system, which would produce a secreted, 6-histidine tagged granzyme B. For protein expression, sf9 cells were grown to a density of 1.5×10^6 cells ml^−1 in Grace's medium (Cat. 11605-094) supplemented with 10% fetal calf serum and penicillin-streptomycin-glutamine (Cat. 10378-024). Prior to the addition of virus, cells were centrifuged at 1000×g for 15 minutes and resuspended to the same density in fresh growth medium containing recombinant viral stock and SP Sepharose beads (4 ml resin per liter of culture). After 72 hours of induction at 27° C., the resin was collected in a 50 micron Nylon mesh (PGC Scientifics), extensively washed with 50 mM Mes.NaOH, 0.3 M Na Cl, pH 6.6 and poured onto a column. The protein was eluted using a linear gradient (0.3 to 1.0 M) of NaCl. Fractions containing granzyme B activity were identified, combined and concentrated and then diluted in 20 mM Tris.HCl, pH 8.0. The sample was readjusted to a final pH 8.0, CaCl2 (3 mM final concentration) and factor Xa (Pharmacia, 10 units per mg of protein) were added, and incubated for 18 hours at room temperature to generate active granzyme B. Under these conditions, complete cleavage is achieved. The recombinant granzyme B was purified from the cleavage mixture using a 1 ml HiTrap SP column (Pharmacia). The yield can be as much as 4-5 mg of purified granzyme B per liter of culture. Mass spectral analysis identifies one major peak at 27,466 Da (other components of 27,320 Da and 26,630 Da were also consistently observed). Since the combined mass of the 227-amino acids defined by sequence analysis only accounts for 25,511.58 Da, we concluded that preparations of recombinant granzyme B purified with this method are more homogenous and less glycosylated than preparations of native granzyme B purified from NK cell granules. […]

T1 sequence (P10144 21-247): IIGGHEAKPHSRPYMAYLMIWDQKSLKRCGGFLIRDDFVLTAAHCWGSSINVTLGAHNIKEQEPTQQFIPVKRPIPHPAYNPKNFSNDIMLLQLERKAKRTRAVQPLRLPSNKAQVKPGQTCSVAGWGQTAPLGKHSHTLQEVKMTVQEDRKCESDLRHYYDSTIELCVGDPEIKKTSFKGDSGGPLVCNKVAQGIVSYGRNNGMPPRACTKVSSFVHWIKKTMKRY

Structure (SMILES)	Ki
CC[C@H](C)[C@H](NC(=O)Cc1csc2ccccc12)C(=O)N[C@H]1CCc2cccc3c2N(C1=O)[C@H](C(=O)NCc1c[nH]nn1)C3 [Example 28]	7 nM
CC[C@H](C)[C@@H](C(=O)N[C@H]1CCc2cccc3c2N(C1=O)[C@H](C(=O)NCc1c[nH]nn1)C3)N1CCCC1=O [Example 30]	112 nM
CC[C@H](C)[C@H](NC(C)=O)C(=O)N[C@H]1CCc2cccc3c2N(C1=O)[C@H](C(=O)NCc1nn[nH]n1)C3 [Example 1, (2S,5S)-5-[(N-acetyl-L-isoleucyl)amino]-4-oxo-N-(1H-tetraazol-5-ylmethyl)-1,2,4,5,6,7-hexahydroazepino[3,2,1-hi]indole-2-carboxamide]	74 nM
CC[C@H](C)[C@H](NC(C)=O)C(=O)N[C@H]1CCc2cccc3c2N(C1=O)[C@H](C(=O)NCc1c[nH]nn1)C3 [Example 2, (2S,5S)-5-[(N-acetyl-L-isoleucyl)amino]-4-oxo-N-(1H-1,2,3-triazol-4-ylmethyl)-1,2,4,5,6,7-hexahydroazepino[3,2,1-hi]indole-2-carboxamide]	38 nM
CC[C@H](C)[C@H](NC(=O)Cc1csc2ccccc12)C(=O)N[C@H]1CCc2cccc3c2N(C1=O)[C@H](C(=O)NCc1nn[nH]n1)C3 [Example 26]	17 nM
CC[C@H](C)[C@H](NC(=O)Cc1cccc(F)c1F)C(=O)N[C@H]1CCc2cccc3c2N(C1=O)[C@H](C(=O)NCc1nn[nH]n1)C3 [Example 24]	36 nM
CC(C)[C@@H](C(=O)N[C@H]1CCc2cccc3c2N(C1=O)[C@H](C(=O)NCc1nn[nH]n1)C3)c1ccccn1 [Example 21]	410 nM
O=C(CC1CCCC1)N[C@H]1CCc2cccc3c2N(C1=O)[C@H](C(=O)NCc1c[nH]nn1)C3 [Example 31]	1840 nM
CC[C@H](C)[C@H](NC(=O)CN(C)C)C(=O)N[C@H]1CCc2cccc3c2N(C1=O)[C@H](C(=O)NCc1nn[nH]n1)C3 [Example 25]	203 nM
CC[C@H](C)[C@H](NC(=O)CN(C)C)C(=O)N[C@H]1CCc2cccc3c2N(C1=O)[C@H](C(=O)NCc1c[nH]nn1)C3 [Example 27]	45 nM
CC[C@H](C)[C@H](NC(C)=O)C(=O)N[C@H]1CCc2cccc3c2N(C1=O)[C@H](C(=O)NCc1cn2cccnc2n1)C3 [Example 19]	788 nM
CC(=O)N[C@H](C(=O)N[C@H]1CCc2cccc3c2N(C1=O)[C@H](C(=O)NCc1c[nH]nn1)C3)C1CC1 [Example 32]	1020 nM
CC(=O)N[C@H](C(=O)N[C@H]1CCc2cccc3c2N(C1=O)[C@H](C(=O)NCc1c[nH]nn1)C3)C1CCCC1 [Example 33]	71 nM
CC[C@H](C)[C@H](NC(=O)Cc1ccccc1)C(=O)N[C@H]1CCc2cccc3c2N(C1=O)[C@H](C(=O)NCc1c[nH]nn1)C3 [Example 4, (2S,5S)-4-oxo-5-{[N-(phenylacetyl)-L-isoleucyl]amino}-N-(1H-1,2,3-triazol-4-ylmethyl)-1,2,4,5,6,7-hexahydroazepino[3,2,1-hi]indole-2-carboxamide]	13 nM
CC(=O)N1CSC(C)(C)[C@H]1C(=O)N[C@H]1CCc2cccc3c2N(C1=O)[C@H](C(=O)NCc1c[nH]nn1)C3 [Example 29]	3880 nM
